Data taken from patent US20240417435A1, “DEFENSIN-DERIVED PEPTIDE WITH ANTIBACTERIAL ACTIVITY ALSO AGAINST MULTI-ANTIBIOTIC-RESISTANT BACTERIA” (priority 2021, published 2024).
Converted amounts (≈) assume the structure as drawn. Where a SMILES comes first, the peptide text is derived from it.

Key:
[1] = system: MRSA strain 1; format: cell-based, Staphylococcus aureus
Protocol: (§1) The antimicrobial activity of peptide γ2 was evaluated versus Pseudomonas aeruginosa ATCC 27853, Escherichia coli ATCC 13762 and Staphylococcus aureus ATCC 6538, and versus multidrug-resistant (MDR) clinical isolates of Methicillin-Resistant Staphylococcus aureus (MRSA), extended-spectrum β-lactamase (ESBL)-producing E. coli, P. aeruginosa and Acinetobacter baumannii complex. The isolates were identified by mass spectrometry using the MALDI (matrix-assisted laser desorption/ionisation) mass spectrometer and the biochemical phenotyping method in a VITEKR 2 bioMérieux system (bioMérieux Italia S.p.a., Bagno a Ripoli, Florence, Italy), according to the manufacturer's instructions. The antibiotic susceptibility profile was evaluated with the VITEKR 2 bioMérieux System. The microorganisms were cultured in broth and agar at 37° C. The media used were BD Brain Heart Infusion broth (BHI) (BD, Franklin Lakes, NJ, USA) and BHI agar (OXOID, Basingstoke, Hampshire, UK), BD Trypticase Soy agar with 5% sheep's blood and MacConkey agar (OXOID, Basingstoke, Hampshire, UK). The isolates were stored frozen at −80° C. in BHI broth supplemented with 10% (v/v) glycerol (Carlo Erba Reagents, Milan, Italy) until use, and the work cultures were activated in the respective broths at 37° C. for 15-18 h.
(§2) Assays of the antibacterial activity of peptide γ2, in both reduced and oxidised form, were conducted against P. aeruginosa ATCC 27853, E. coli ATCC 13762, S. aureus ATCC 6538 and MDR clinical isolates. The strains were cultured under aerobic conditions in BHI broth at 37° C. and incubated with peptide γ2 for 2 hours at 37° C. Various concentrations of peptide were used, ranging from 1 μM to 128 μM. Each test was conducted in triplicate with three independent cultures. The minimum inhibitory concentration (MIC) and the minimum bactericidal concentration (MBC) of the peptide were determined with a modified version of the Clinical and Laboratory Standards Institute broth microdilution assay, using a final inoculum concentration of 10^5 CFU/ml, as previously described (Scudiero O et al., Antimicrob Agents Chemother 2010; 54:2312-22; Scudiero O et al. Antimicrob Ag Chemother 2013; 57:1701-8).
(§3) The MIC is indicated by the concentration interval, which comprise the upper growth limit and the first concentration which could not support visible bacterial growth after incubation. The MBC was defined as the lowest concentration at which no viable colonies were observed. The peptide concentrations were 128.0, 64.0, 32.0, 16.0, 8.0, 4.0, 2.0 and 1 μM. For the time-kill studies against the ATCC and MDR strains, the bacteria were cultured in BHI broth until the late log growth phase at 37° C. The bacterial suspensions, containing about 10^6 CFU/ml (adjusted by the spectrophotometer to OD600 nm), were diluted 1:100 in PBS1× and then incubated at 37° C. with or without the peptide, selected at concentrations corresponding to 1, 2 and 4×MIC (as determined above). At baseline and 1, 2, 3 and 5 hours after incubation, a portion of each sample was harvested, diluted in series in PBS1× and seeded on BHI agar. The plates were incubated for […] at 37° C., and the viable bacteria count was conducted by the CFU method. All the data were expressed as mean±SD of three independent experiments.

[2] = system: MRSA strain 2; format: cell-based, Staphylococcus aureus
Protocol: as §1, §2, §3

[3] = system: MRSA strain 3; format: cell-based, Staphylococcus aureus
Protocol: as §1, §2, §3

[4] = system: S. aureus ATCC 6538; format: cell-based, Staphylococcus aureus
Protocol: as §1, §2, §3

[5] = system: E. coli ATCC 13762; format: cell-based, Escherichia coli
Protocol: as §1, §2, §3

[6] = system: E. coli ESBL strain 1; format: cell-based, Escherichia coli
Protocol: as §1, §2, §3

[7] = system: E. coli ESBL strain 2; format: cell-based, Escherichia coli
Protocol: as §1, §2, §3

[8] = system: P. aeruginosa ATCC 27853; format: cell-based, Pseudomonas aeruginosa
Protocol: as §1, §2, §3

[9] = system: P. aeruginosa MDR strain 1; format: cell-based, Pseudomonas aeruginosa
Protocol: as §1, §2, §3

[10] = system: P. aeruginosa MDR strain 2; format: cell-based, Pseudomonas aeruginosa
Protocol: as §1, §2, §3

[11] = system: A. baumannii MDR strain 1; format: cell-based, Acinetobacter baumannii complex
Protocol: as §1, §2, §3

[12] = system: A. baumannii MDR strain 2; format: cell-based, Acinetobacter baumannii complex
Protocol: as §1, §2, §3

[13] = system: MRSA strains; assay: In vitro time-kill kinetics assay; format: cell-based, Staphylococcus aureus; details: all MRSA strains; peptide at MIC; after 2 hours' incubation, throughout observation period
Protocol: as §3

[14] = system: S. aureus ATCC 6538 (ATCC reference strain); assay: In vitro time-kill kinetics assay; format: cell-based, Staphylococcus aureus; details: peptide at MIC, after 2 hours' incubation
Protocol: as §3

[15] = system: E. coli ATCC 13762 (ATCC reference strain); assay: In vitro time-kill kinetics assay; format: cell-based, Escherichia coli; details: peptide at MIC, after 2 hours' incubation
Protocol: as §3

[16] = system: ESBL strains of E. coli; assay: In vitro time-kill kinetics assay; format: cell-based, Escherichia coli; details: peptide at MIC, after 2 hours' incubation, throughout observation period
Protocol: as §3

[17] = system: P. aeruginosa ATCC 27853; assay: In vitro time-kill kinetics assay; format: cell-based, Pseudomonas aeruginosa
Protocol: as §3

[18] = system: P. aeruginosa MDR 2 strain; assay: In vitro time-kill kinetics assay; format: cell-based, Pseudomonas aeruginosa
Protocol: as §3

[19] = system: A. baumannii MDR 2; assay: In vitro time-kill kinetics assay; format: cell-based, Acinetobacter baumannii complex
Protocol: as §3

## CC[C@H](C)[C@H](NC(=O)[C@H](CCC(N)=O)NC(=O)[C@H](CCCNC(=N)N)NC(=O)[C@H](CCCNC(=N)N)NC(=O)[C@H](CCCCN)NC(=O)[C@@H]1CCCN1C(=O)[C@H](CC(C)C)NC(=O)[C@H](CS)NC(C)=O)C(=O)NCC(=O)N[C@@H](CCCCN)C(=O)N[C@@H](CO)C(=O)N[C@@H](CO)C(=O)N[C@H](C(=O)N[C@@H](CCCNC(=N)N)C(=O)NCC(=O)N[C@@H](CCCNC(=N)N)C(=O)N[C@@H](CCCCN)C(=O)N[C@@H](CO)C(=O)N[C@@H](CS)C(=O)N[C@@H](CCCCN)C(=O)N[C@@H](CCCCN)C(N)=O)[C@@H](C)O [Reduced peptide γ2] (Ac-CLPKRRQIGKSSTRGRKSCKK-NH2)
[1]
  MBC: 1 µM (≈ 2.46 µg/mL)
  MIC: 1 µM (≈ 2.46 µg/mL)
[2]
  MBC: 16 µM (≈ 39.3 µg/mL)
  MIC: 4 to 8 µM
[3]
  MBC: 4 µM (≈ 9.84 µg/mL)
  MIC: 1 µM (≈ 2.46 µg/mL)
[4]
  MBC: 1 to 2 µM
[5]
  MBC: 2 µM (≈ 4.92 µg/mL)
  MIC: 2 µM (≈ 4.92 µg/mL)
[6]
  MBC: 2 µM (≈ 4.92 µg/mL)
  MIC: 2 µM (≈ 4.92 µg/mL)
[7]
  MBC: 16 µM (≈ 39.3 µg/mL)
  MIC: 2 µM (≈ 4.92 µg/mL)
[8]
  MBC: 1 µM (≈ 2.46 µg/mL)
[9]
  MBC: 64 µM (≈ 157 µg/mL)
[10]
  MBC: 1 µM (≈ 2.46 µg/mL)
  MIC: 1 µM (≈ 2.46 µg/mL)
[11]
  MBC: 64 µM (≈ 157 µg/mL)
[12]; A. baumannii MDR strain 2
  MIC: 1 µM (≈ 2.46 µg/mL)
[12]; MDR strain 2
  MBC: 1 µM (≈ 2.46 µg/mL)
[13]
  growth in time-kill assay: total reduction in growth
[14]
  growth in time-kill assay: total reduction in growth
[15]
  growth in time-kill assay: total reduction in growth
[16]
  growth in time-kill assay: total reduction in growth
[17]; peptide at 2×MIC
  growth in time-kill assay: no growth
[17]; peptide at MIC only
  growth and viability in time-kill assay: initial reduction in growth and viability in the first few hours of observation, whereas at longer times (5 and 7 h) a slight resumption in growth and viability
[18]; peptide at 2×MIC
  growth in time-kill assay: no growth
[18]; peptide at MIC only
  growth and viability in time-kill assay: initial reduction in growth and viability in the first few hours of observation, whereas at longer times (5 and 7 h) a slight resumption in growth and viability
[19]; after 2 hours' treatment
  growth and viability in time-kill assay: great reduction in growth and viability
[19]; longer observation times, even at 4×MIC
  growth and viability in time-kill assay: slight recovery of growth and viability
